What was measured:
[1] = target: T1, NOX2 (Homo sapiens, UniProt P04839); assay: NOX2 HL60 cell-based assay (PMA oxidative burst, L012 chemiluminescence); details: DMSO-differentiated HL-60 cells, PMA-stimulated; for inhibition at 0.1 µM: HL-60, 100 nM; for inhibition at 1 µM: HL-60, 1000 nM
T1 construct: HL-60 cells, rich in NOX2 expression; endogenous in cells; host or cells: DMSO-differentiated HL-60
T1 sequence (P04839 2-570 limits assumed): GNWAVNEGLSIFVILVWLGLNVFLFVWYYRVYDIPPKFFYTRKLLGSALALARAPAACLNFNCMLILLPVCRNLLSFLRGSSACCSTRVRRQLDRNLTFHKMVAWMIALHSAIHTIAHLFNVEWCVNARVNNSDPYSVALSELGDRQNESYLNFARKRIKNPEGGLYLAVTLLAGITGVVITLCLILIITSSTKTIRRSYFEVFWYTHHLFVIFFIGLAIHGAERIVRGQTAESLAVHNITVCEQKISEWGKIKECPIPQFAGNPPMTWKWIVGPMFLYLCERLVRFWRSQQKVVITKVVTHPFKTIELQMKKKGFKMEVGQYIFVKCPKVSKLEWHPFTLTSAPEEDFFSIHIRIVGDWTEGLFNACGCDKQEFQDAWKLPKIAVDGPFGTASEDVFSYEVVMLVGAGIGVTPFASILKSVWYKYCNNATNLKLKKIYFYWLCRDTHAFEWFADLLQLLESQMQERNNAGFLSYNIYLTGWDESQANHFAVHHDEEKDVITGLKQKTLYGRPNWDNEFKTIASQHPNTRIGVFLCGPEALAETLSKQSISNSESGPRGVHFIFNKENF
T1 sequence (P13498 2-195 partner limits assumed): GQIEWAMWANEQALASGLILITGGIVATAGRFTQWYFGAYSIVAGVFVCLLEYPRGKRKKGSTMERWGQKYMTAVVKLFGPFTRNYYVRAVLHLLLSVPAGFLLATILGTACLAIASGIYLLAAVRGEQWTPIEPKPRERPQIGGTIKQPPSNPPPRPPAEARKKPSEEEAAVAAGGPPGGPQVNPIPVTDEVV
Method in brief: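 DMSO-differentiated HL-60 cells (2.5×10^5/well) with 100 μM L012 preincubated with compound 30-60 min at 37 °C in the dark. Oxidative burst triggered by 10 ng/mL PMA; superoxide chemiluminescence read every 5 min for 60 min.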

[2] = target: T2, NOX4 (Homo sapiens, UniProt Q9NPH5); assay: NOX4 HEK293 overexpression cell-based assay (Amplex Red H2O2); details: HEK293 cells stably overexpressing NOX4, DMSO = 0, GKT137831 = 100; for inhibition at 1 µM: HEK293, 1000 nM; for inhibition at 0.1 µM: HEK293, 100 nM
T2 construct: expressed in transfected cells
T2 sequence (Q9NPH5 1-578): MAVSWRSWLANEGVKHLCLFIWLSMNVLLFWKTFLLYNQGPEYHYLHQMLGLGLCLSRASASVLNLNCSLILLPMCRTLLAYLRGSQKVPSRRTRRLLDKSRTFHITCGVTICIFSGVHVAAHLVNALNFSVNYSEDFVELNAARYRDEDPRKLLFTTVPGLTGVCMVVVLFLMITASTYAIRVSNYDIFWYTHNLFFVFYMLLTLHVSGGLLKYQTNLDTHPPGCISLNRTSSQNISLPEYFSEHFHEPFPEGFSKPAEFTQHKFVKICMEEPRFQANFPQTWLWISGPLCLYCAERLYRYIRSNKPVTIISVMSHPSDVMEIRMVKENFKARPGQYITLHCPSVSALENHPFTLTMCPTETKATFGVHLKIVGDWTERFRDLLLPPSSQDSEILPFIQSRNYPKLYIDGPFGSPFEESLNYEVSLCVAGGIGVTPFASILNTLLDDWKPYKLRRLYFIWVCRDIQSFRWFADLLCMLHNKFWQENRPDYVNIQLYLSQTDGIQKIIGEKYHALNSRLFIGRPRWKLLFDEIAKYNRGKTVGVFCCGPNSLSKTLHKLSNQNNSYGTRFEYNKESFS
T2 sequence (P13498 2-195 partner limits assumed): T1 sequence (P13498 2-195 partner limits assumed)
Method in brief: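 HEK293 cells stably overexpressing NOX4 (3×10^4) preincubated 30 min at 37° C with compound in KRPG buffer, then mixed with Amplex Red reagent solution (50 μM Amplex Red, 0.1 units/mL HRP) for 90 min at 37° C in the dark. Supernatant fluorescence read at 530/590 nm; DMSO set to 0 and GKT137831 to 100.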

[3] = target: T3, NOX1 (Homo sapiens, UniProt Q9Y5S8); assay: NOX1 HT29 cell-based assay (luminol/HRP luminescence); details: HT29 cells, DMSO = 0%, GKT137831 = 100%; for inhibition at 0.1 µM / inhibition at 1 µM: HT-29
T3 construct: endogenous in cells; host or cells: HT29
T3 sequence (Q9Y5S8 1-564): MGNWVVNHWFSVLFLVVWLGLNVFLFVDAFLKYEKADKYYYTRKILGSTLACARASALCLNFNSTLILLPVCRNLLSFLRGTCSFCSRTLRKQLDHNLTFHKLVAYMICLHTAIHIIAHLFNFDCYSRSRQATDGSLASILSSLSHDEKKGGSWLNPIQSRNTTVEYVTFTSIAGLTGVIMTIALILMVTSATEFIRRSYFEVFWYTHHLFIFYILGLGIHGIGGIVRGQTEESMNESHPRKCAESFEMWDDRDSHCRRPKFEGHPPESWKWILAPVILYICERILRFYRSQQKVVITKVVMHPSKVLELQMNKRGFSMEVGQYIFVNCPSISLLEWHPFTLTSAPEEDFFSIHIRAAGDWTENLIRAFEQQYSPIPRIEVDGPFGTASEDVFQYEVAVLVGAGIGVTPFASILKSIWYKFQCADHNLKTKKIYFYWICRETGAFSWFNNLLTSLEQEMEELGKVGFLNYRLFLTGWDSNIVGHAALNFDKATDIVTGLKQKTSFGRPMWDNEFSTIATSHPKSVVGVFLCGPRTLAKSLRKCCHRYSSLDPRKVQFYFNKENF
T3 sequence (P13498 2-195 partner limits assumed): T1 sequence (P13498 2-195 partner limits assumed)
Method in brief: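 HT29 cells (1-2×10^5 per well) pretreated 30-60 min at 37 °C with compound at 100 nM and 1000 nM final, in duplicate, 0.1% DMSO. ROS read as luminol (100 μM)/HRP (0.4 U) luminescence. Activity normalised to DMSO (0%) and GKT137831 (100%).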

| Structure (SMILES) | inhibition at 0.1 µM [1] | inhibition at 1 µM [1] | % Inhibition NOX4 ([2]; 100 nM) | inhibition at 1 µM [2] | inhibition at 0.1 µM ([3]; 100 nM) | inhibition at 1 µM ([3]; 1000 nM) | % Inhibition NOX2 ([1]; 100 nM) | inhibition at 0.1 µM [2] | % Inhibition NOX2 ([1]; 1000 nM) | % Inhibition NOX4 ([2]; 1000 nM) | % Inhibition NOX1 ([3]; 100 nM) | % Inhibition NOX1 ([3]; 1000 nM) | % Inhibition NOX2 ([1]; 100 nM, 0.1 µM) | % Inhibition NOX2 ([1]; 1000 nM, 1 µM) |
| --- | --- | --- | --- | --- | --- | --- | --- | --- | --- | --- | --- | --- | --- | --- |
| CCOc1ccccc1-c1[nH]c2cc(OC)c(OC)cc2c(=O)c1O [Compound 21] | ≤ 19% | 50 to 79% | C (the percent of inhibition of NOX by the compounds ranges from 2000 to 49%) | ≥ 80% | ≥ 80% | ≥ 80% | – | – | – | – | – | – | – | – |
| CCCOc1ccccc1-c1[nH]c2cc(OC)c(OC)cc2c(=O)c1O [Compound 22] | – | ≥ 80% | C (the percent of inhibition of NOX by the compounds ranges from 2000 to 49%) | ≥ 80% | ≥ 80% | ≥ 80% | C (the percent of inhibition of NOX by the compounds ranges from 2000 to 49%) | – | – | – | – | – | – | – |
| COc1cc(Br)c(-c2[nH]c3cc(OC)c(OC)cc3c(=O)c2O)c(OC)c1 [Compound 27] | ≤ 19% | ≥ 80% | C (the percent of inhibition of NOX by the compounds ranges from 2000 to 49%) | ≥ 80% | ≥ 80% | ≥ 80% | – | – | – | – | – | – | – | – |
| COc1cc2[nH]c(-c3ccc(C(F)(F)F)cc3)c(O)c(=O)c2cc1OC [Compound 12] | ≤ 19% | ≤ 19% | – | ≥ 80% | ≤ 19% | ≥ 80% | – | ≤ 19% | – | – | – | – | – | – |
| COc1cc2[nH]c(-c3ccccc3OC)c(O)c(=O)c2cc1OC [Compound 5] | ≤ 19% | – | C (the percent of inhibition of NOX by the compounds ranges from 2000 to 49%) | – | – | – | – | – | A (the percent of inhibition of NOX by the compounds is larger than or equals to 80%) | A (the percent of inhibition of NOX by the compounds is larger than or equals to 80%) | A (the percent of inhibition of NOX by the compounds is larger than or equals to 80%) | A (the percent of inhibition of NOX by the compounds is larger than or equals to 80%) | – | – |
| COc1ccc(-c2[nH]c3cc(OC)c(OC)cc3c(=O)c2O)c(OC)c1 [Compound 15] | – | ≥ 80% | C (the percent of inhibition of NOX by the compounds ranges from 2000 to 49%) | ≥ 80% | ≥ 80% | ≥ 80% | C (the percent of inhibition of NOX by the compounds ranges from 2000 to 49%) | – | – | – | – | – | – | – |
| COc1ccc(-c2[nH]c3cc(C(=O)O)ccc3c(=O)c2O)cc1 [Compound 33, 3-hydroxy-2-(4-methoxyphenyl)-4-oxo-1,4-dihydroquinoline-7-carboxylic acid] | ≤ 19% | 50 to 79% | – | 50 to 79% | ≥ 80% | ≥ 80% | – | ≤ 19% | – | – | – | – | – | – |
| COc1cc2[nH]c(-c3ccccc3OC)c(N)c(=O)c2cc1OC [Compound 38] | ≤ 19% | ≤ 19% | – | – | ≤ 19% | ≤ 19% | – | ≤ 19% | – | C (the percent of inhibition of NOX by the compounds ranges from 2000 to 49%) | – | – | – | – |
| COc1cc2[nH]c(-c3ccc(F)cc3)c(O)c(=O)c2cc1OC [Compound 13] | ≤ 19% | ≥ 80% | C (the percent of inhibition of NOX by the compounds ranges from 2000 to 49%) | ≥ 80% | ≥ 80% | ≥ 80% | – | – | – | – | – | – | – | – |
| COc1ccccc1-c1[nH]c2c(OC)c(OC)c(OC)cc2c(=O)c1O [Compound 19] | ≤ 19% | 50 to 79% | – | 50 to 79% | ≥ 80% | ≥ 80% | – | ≤ 19% | – | – | – | – | – | – |
| COc1cc2[nH]c(-c3ccccc3C(F)(F)F)c(O)c(=O)c2cc1OC [Compound 17] | – | – | – | 50 to 79% | ≥ 80% | ≥ 80% | – | 50 to 79% | – | – | – | – | C (the percent of inhibition of NOX by the compounds ranges from 2000 to 49%) | B (the percent of inhibition of NOX by the compounds ranges from 50% o to 79% o) |
| COc1cc2[nH]c(-c3ccc(Cl)cc3Cl)c(O)c(=O)c2cc1OC [Compound 49] | ≤ 19% | – | C (the percent of inhibition of NOX by the compounds ranges from 2000 to 49%) | – | – | – | – | – | A (the percent of inhibition of NOX by the compounds is larger than or equals to 80%) | B (the percent of inhibition of NOX by the compounds ranges from 50% o to 79% o) | A (the percent of inhibition of NOX by the compounds is larger than or equals to 80%) | A (the percent of inhibition of NOX by the compounds is larger than or equals to 80%) | – | – |
| COc1cc2[nH]c(-c3ccccc3S(C)(=O)=O)c(O)c(=O)c2cc1OC [Compound 23] | 50 to 79% | ≥ 80% | – | 50 to 79% | ≥ 80% | ≥ 80% | – | 50 to 79% | – | – | – | – | – | – |
| COc1cc2[nH]c(-c3ccc(C)cc3)c(O)c(=O)c2cc1OC [Compound 6] | ≤ 19% | ≤ 19% | C (the percent of inhibition of NOX by the compounds ranges from 2000 to 49%) | 50 to 79% | ≥ 80% | ≥ 80% | – | – | – | – | – | – | – | – |
